Source: US8802664B2 (Bioproject, priority 2010, dated 2014)

Target: T1, human H4 receptor (Homo sapiens, UniProt Q9H3N8)
T1 construct: expressed in transfected cells
Assay: [3H]Histamine binding on membranes of CHO cells stably expressing human H4 receptor
Conditions: not given
In short: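 Nonspecific binding defined with 10 μM JNJ 7777120. Bound radioactivity collected on polyethyleneimine-treated GF/B filters and counted by liquid scintillation.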

Ki or IC50 activity class	SMILES
< 30 nM	CN1CCC(OC(c2cccc(OCCF)c2)c2nc3ccccc3[nH]2)CC1 (stereo not shown) [Example 476]
< 30 nM	COc1ccc(F)c(C(OC2CCN(C)CC2)c2nc3ccccc3[nH]2)c1 (stereo not shown) [Example 486]
< 30 nM	CN1CCC(OC(c2nc3ccccc3[nH]2)c2cc(O)ccc2F)CC1 (stereo not shown) [Example 487]
< 30 nM	CN1CCC(OC(c2nc3ccccc3[nH]2)c2cc(OCCF)ccc2F)CC1 (stereo not shown) [Example 489]
< 300 nM	Cc1ccc(F)c(C(OC2CCN(C)CC2)c2nc3ccccc3[nH]2)c1 (stereo not shown) [Example 490]
< 300 nM	CN1CCC(OC(c2nc3ccccc3[nH]2)c2cc(Cl)ccc2F)CC1 (stereo not shown) [Example 496]
< 300 nM	CN1CCC(OC(c2nc3ccccc3[nH]2)c2cc(C(F)(F)F)ccc2F)CC1 (stereo not shown) [Example 498]
< 30 nM	COc1ccc(F)c(C(OCC2CCN(C)C2)c2nc3ccccc3[nH]2)c1 (stereo not shown) [Example 504]
< 30 nM	CN1CCC(OC(c2cccc(SCCCF)c2)c2nc3ccccc3[nH]2)CC1 (stereo not shown) [Example 508]
< 30 nM	CN1CCC(OC(c2nc3cc(F)ccc3[nH]2)c2cc(OC(F)(F)F)ccc2F)CC1 (stereo not shown) [Example 509]
< 30 nM	CN1CCC(OC(c2nc3ccccc3[nH]2)c2c(F)cccc2F)CC1 (stereo not shown) [Example 512]
< 30 nM	Cc1ccc(C(OC2CCN(C)CC2)c2nc3ccccc3[nH]2)c(F)c1 (stereo not shown) [Example 513]
< 30 nM	CCSc1ccc(F)c(C(OC2CCN(C)CC2)c2nc3ccccc3[nH]2)c1 (stereo not shown) [Example 514]
< 1000 nM	CN1CCC(OC(c2ccc(F)c(OC(F)(F)F)c2)c2nc3ccccc3[nH]2)CC1 (stereo not shown) [Example 518]
< 30 nM	CCCOc1ccc(F)c(C(OC2CCN(C)CC2)c2nc3ccccc3[nH]2)c1 (stereo not shown) [Example 519]
< 300 nM	CCSc1ccc(F)c(C(OC2CCN(C)CC2)c2nc3ccccc3[nH]2)c1F (stereo not shown) [Example 520]
< 300 nM	CN1CCC(OC(c2nc3ccccc3[nH]2)c2cc(OC(F)(F)F)ccc2Cl)CC1 (stereo not shown) [Example 524]
< 300 nM	CSCc1cccc(C(OC2CCN(C)CC2)c2nc3ccccc3[nH]2)c1 (stereo not shown) [Example 528, 2-[(1-methylpiperidin-4-yloxy)(3-methylsulfanylmethylphenyl)methyl]-1H-benzimidazole]
< 300 nM	CN1CCC(OC(c2nc3cccc(F)c3[nH]2)c2cc(OC(F)(F)F)ccc2F)CC1 (stereo not shown) [Example 529]
< 300 nM	CN1CCC(OC(c2ccsc2)c2nc3ccccc3[nH]2)CC1 (stereo not shown) [Example 539]
< 300 nM	CN1CCC(OC(c2nc3ccccc3[nH]2)c2cccs2)CC1 (stereo not shown) [Example 546]
< 30 nM	CN1CCC(OC(c2ccc3cc[nH]c3c2)c2nc3ccccc3[nH]2)CC1 (stereo not shown) [Example 550, 2-[(1H-indol-6-yl)(1-methylpiperidin-4-yloxy)methyl]-1H-benzimidazole]
< 30 nM	CN1CCC(OC(c2nc3ccccc3[nH]2)c2cc(C#CCCCCN)ccc2F)CC1 (stereo not shown) [Example 557, 6-{3-[(1H-benzimidazol-2-yl)(1-methylpiperidin-4-yloxy)methyl]-4-fluorophenyl}hex-5-ynylamine]

The remaining lines, values behind:

SMILES	Ki or IC50 activity class
CN1CCC(OC(c2cccc(OC3CCC(N)CC3)c2)c2nc3ccccc3s2)CC1 (stereo not shown) [Example 477]	< 1000 nM
CN1CCC(OC(c2cccc(SCC3NC(N)=NC3=O)c2)c2nc3ccccc3[nH]2)CC1 (stereo not shown) [Example 479, 2-amino-5-{3-[(1H-benzimidazol-2-yl)(1-methylpiperidin-4-yloxy)methyl]phenylsulfanylmethyl}-1,5-dihydroimidazol-4-one]	< 30 nM
CN1CCC(OC(c2cccc(C#CCCCCN)c2)c2nc3ccccc3n2C)CC1 (stereo not shown) [Example 480, 6-{3-[(1-methyl-1H-benzimidazol-2-yl)(1-methylpiperidin-4-yloxy)methyl]phenyl}hex-5-ynylamine]	< 300 nM
CN1CCC(OC(c2cccc(N3CCCC3CN)c2)c2nc3ccccc3s2)CC1 (stereo not shown) [Example 482]	< 30 nM
CNC1CCN(c2cccc(C(OC3CCN(C)CC3)c3nc4ccccc4s3)c2)C1 (stereo not shown) [Example 483]	< 300 nM
CN1CCC(OC(c2cccc(N3CCC(N(C)C)C3)c2)c2nc3ccccc3s2)CC1 (stereo not shown) [Example 484]	< 30 nM
CN1CCC(OC(c2cccc(N3CC4CN(C)CC4C3)c2)c2nc3ccccc3s2)CC1 (stereo not shown) [Example 485]	< 1000 nM
CN1CCC(OC(c2cccc(C=CCN)c2)c2nc3ccccc3[nH]2)CC1 (stereo not shown) [Example 488]	< 1000 nM
CN1CCC(OC(c2cccc(N3CCC(F)(F)C3)c2)c2nc3ccccc3[nH]2)CC1 (stereo not shown) [Example 491]	< 1000 nM
CN1CCC(OC(c2cccc(N3CC4CC(F)CC4C3)c2)c2nc3ccccc3s2)CC1 (stereo not shown) [Example 492]	< 1000 nM
CN1CCC(OC(c2cccc(SCCCCN)c2)c2nc3cc(F)c(F)c(F)c3[nH]2)CC1 (stereo not shown) [Example 493]	< 30 nM
CN1CCC(OC(c2cccc(SC[C@H]3C[C@H]3CN)c2)c2nc3ccccc3[nH]2)CC1 (stereo partly shown) [Example 494]	< 30 nM
CN1CCC(OC(c2cccc(SCCCCN)c2)c2nc3cc(F)c(F)cc3[nH]2)CC1 (stereo not shown) [Example 495]	< 30 nM
CCOCCn1c(C(OC2CCN(C)CC2)c2cccc(I)c2)nc2ccccc21 (stereo not shown) [Example 497, 1-(2-ethoxyethyl)-2-[(3-iodophenyl)(1-methylpiperidin-4-yloxy)methyl]-1H-benzimidazole]	< 1000 nM
CN1CCC(OC(c2cccc(C=CCNC(=N)N)c2)c2nc3ccccc3[nH]2)CC1 (stereo not shown) [Example 499]	< 30 nM
CCOCCn1c(C(OC2CCN(C)CC2)c2cccc(C#CCCCCN)c2)nc2ccccc21 (stereo not shown) [Example 500]	< 300 nM
COCCn1c(C(OC2CCN(C)CC2)c2cccc(C#CCCCCN)c2)nc2ccccc21 (stereo not shown) [Example 501]	< 300 nM
Brc1cccc(C(OCC2CNC2)c2nc3ccccc3[nH]2)c1 (stereo not shown) [Example 502]	< 1000 nM
CCn1c(C(OC2CCN(C)CC2)c2cccc(C#CCCCCN)c2)nc2ccccc21 (stereo not shown) [Example 503]	< 300 nM
CN1CCC(OC(c2cccc(C=C3NC(=N)NC3=O)c2)c2nc3ccccc3[nH]2)CC1 (stereo not shown) [Example 505, 5-{3-[(1H-benzimidazol-2-yl)(1-methylpiperidin-4-yloxy)methyl]benzylidene}-2-iminoimidazolidin-4-one]	< 1000 nM

SMILES	Ki or IC50 activity class
CN1CC(COC(c2cccc(Br)c2)c2nc3ccccc3[nH]2)C1 (stereo not shown) [Example 506]	< 300 nM
CN1CC(COC(c2cccc(SCCCCN)c2)c2nc3ccccc3[nH]2)C1 (stereo not shown) [Example 507, 4-{3-[(1H-benzimidazol-2-yl)(1-methylazetidin-3-ylmethoxy)methyl]phenylsulfanyl}butylamine]	< 30 nM
Fc1ccc(OC(F)(F)F)cc1C(OCC1CNC1)c1nc2ccccc2[nH]1 (stereo not shown) [Example 515]	< 1000 nM
CN1CC(COC(c2nc3ccccc3[nH]2)c2cc(OC(F)(F)F)ccc2F)C1 (stereo not shown) [Example 516]	< 300 nM
CN1CCC(OC(c2cccc(SC(F)(F)F)c2)c2nc3ccccc3[nH]2)CC1 (stereo not shown) [Example 517]	< 30 nM
CN1CCC(OC(c2ccc3c(c2)OC(F)(F)O3)c2nc3ccccc3[nH]2)CC1 (stereo not shown) [Example 521]	< 1000 nM
CN1CCC(OC(c2nc3ccccc3o2)c2cc(OC(F)(F)F)ccc2F)CC1 (stereo not shown) [Example 525, 2-[(2-fluoro-5-trifluoromethoxyphenyl)(1-methylpiperidin-4-yloxy)methyl]benzoxazole]	< 300 nM
CN1CCC(OC(c2nc3ccccc3s2)c2cc(OC(F)(F)F)ccc2F)CC1 (stereo not shown) [Example 526]	< 30 nM
Cc1cc(F)c(C(OC2CCN(C)CC2)c2nc3ccccc3s2)c(F)c1 (stereo not shown) [Example 531]	< 30 nM
CN1CCC(OC(c2nc3ccccc3s2)c2c(F)cc(Cl)cc2F)CC1 (stereo not shown) [Example 532]	< 300 nM
Cc1cc(F)c(C(OC2CCN(C)CC2)c2nc3ccccc3o2)c(F)c1 (stereo not shown) [Example 536]	< 30 nM
c1ccc2[nH]c(C(OC3CCNCC3)c3ccsc3)nc2c1 (stereo not shown) [Example 538]	< 1000 nM
c1csc(C(OC2CCNCC2)c2nc3ccccc3[nH]2)c1 (stereo not shown) [Example 544]	< 1000 nM
Cc1ccc(C(OC2CCN(C)CC2)c2nc3ccccc3o2)c(F)c1 (stereo not shown) [Example 545]	< 300 nM
CN1CCC(OC(c2cc(C(F)(F)F)cc(C(F)(F)F)c2)c2nc3ccccc3[nH]2)CC1 (stereo not shown) [Example 547]	< 1000 nM
CCOC(=O)NCCCCC#Cc1cccc(C(OC2CCN(C)CC2)c2nc3ccccc3n2C)c1 (stereo not shown) [Example 549, ethyl (6-{3-[(1-methyl-1H-benzimidazol-2-yl)(1-methylpiperidin-4-yloxy)methyl]phenyl}hex-5-ynyl)carbamate]	< 1000 nM
CCOC(=O)n1c(C(OC2CCN(C)CC2)c2cc(OC(F)(F)F)ccc2F)nc2ccccc21 (stereo not shown) [Example 553]	< 1000 nM
CN1CCC(OC(c2ccc3ccsc3c2)c2nc3ccccc3[nH]2)CC1 (stereo not shown) [Example 556, 2-[benzo[b]thiophen-6-yl(1-methylpiperidin-4-yloxy)methyl]-1H-benzimidazole]	< 30 nM
CN1CCC(OC(c2nc3ccccc3[nH]2)c2cc(C#CCCCCN=C(c3ccccc3)c3ccccc3O)ccc2F)CC1 (stereo not shown) [Example 562, 2-[(6-{3-[(1H-benzimidazol-2-yl)(1-methylpiperidin-4-yloxy)methyl]-4-fluorophenyl]hex-5-ynylimino)phenylmethyl}phenol]	< 30 nM
CC1=C(O)C(=NCCCCC#Cc2ccc(F)c(C(OC3CCN(C)CC3)c3nc4ccccc4[nH]3)c2)CC1 (stereo not shown) [Example 563, 5-(6-{3-[(1H-benzimidazol-2-yl)(1-methylpiperidin-4-yloxy)methyl]-4-fluorophenyl}hex-5-ynylimino)-2-methylcyclopent-1-enol]	< 300 nM

Same assay, conditions: human H4 receptor; evaluated in the GTPγ[35S] assay or in the [3H]histamine binding assay (not stated which per compound); Ki or IC50 class

SMILES	Ki or IC50 activity class
CC(C)C(=O)N(CCSc1cccc(C(OC2CCN(C)CC2)c2nc3ccccc3[nH]2)c1)C(=N)N (stereo not shown) [Example 478]	< 300 nM
